Target: Indole amine 2,3-dioxygenase 1 (IDO1) (Homo sapiens, UniProt P14902)
Test: IDO1 enzyme
Type: biochemical

Indole amine 2,3-dioxygenase 1 (IDO1), sequence (P14902 whole entry): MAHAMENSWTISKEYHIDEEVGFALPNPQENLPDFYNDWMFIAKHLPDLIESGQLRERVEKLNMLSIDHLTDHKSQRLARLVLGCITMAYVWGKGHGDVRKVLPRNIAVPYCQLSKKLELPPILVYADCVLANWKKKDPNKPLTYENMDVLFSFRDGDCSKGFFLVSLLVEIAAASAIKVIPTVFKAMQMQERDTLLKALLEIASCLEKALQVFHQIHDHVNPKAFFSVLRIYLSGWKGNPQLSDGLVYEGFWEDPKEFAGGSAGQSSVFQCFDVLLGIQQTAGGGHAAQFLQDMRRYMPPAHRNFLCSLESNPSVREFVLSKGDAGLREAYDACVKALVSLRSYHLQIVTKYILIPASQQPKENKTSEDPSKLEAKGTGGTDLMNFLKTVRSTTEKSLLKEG

IC50: 17.3 µM
Structure (SMILES): O=C1c2ccccc2-n2c1nc1ccccc1c2=O [TRYP, indolo [2,1-b]quinazoline-6,12-dione]

Reference: article PMC11780470 (ACS Omega, 2025)
